# Results taken from patent publication US10077261B2, “Imidazolin-5-one derivative useful as FASN inhibitors for the treatment of cancer” (Janssen Pharmaceutica NV, priority 2012, dated 2018).
# Tests used:
# [1] = tested on: LNCaP-Vancouver prostate cells; test: In vitro LNCaP Vancouver prostate cell proliferation assay in lipid reduced medium; assay type: cell-based; details: read-out: pIC50 LNCaP_Vancouver prostate cell (converted)
# [2] = target: Fatty Acid Synthase Keto-reductase Domain (FASN KR) (Homo sapiens, UniProt P49327); test: Fatty Acid Synthase keto-reductase domain (FASN KR) inhibition, NADPH oxidation at 340 nm
# Method: After 20 minutes incubation at room temperature the plate was measured again (T2).
# The decrease in absorbance was calculated as (Absorbance before incubation T1)−(Absorbance following incubation T2).
# A plot of Controlmin versus test compound concentration was fitted to a 4-parameter logistic curve using a non-linear least squares regression method.
# [3] = target: T1, hFASN enzyme (full length) (Homo sapiens, UniProt P49327); test: Fatty Acid Synthase (FASN) inhibition scintillation proximity assay; assay type: biochemical; details: for inhibition at 10 µM: read-out: Human FASN % inhibition @ 10 μM, 10 μM test compound; for IC50: read-out: Human FASN pIC50 (converted)
# T1 construct: 10 μL hFASN enzyme (full length, 300 ng, purified in house); made in house
# Procedure, shortened: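 Full-length in-house purified enzyme (300 ng) was tested in 100 mM KH2PO4 pH 7.5, 1 mM DTT with ³H-acetyl-CoA and malonyl-CoA as substrates; compounds ranged 0.01–30 μM. Reactions were stopped with streptavidin imaging beads, read by LEADseeker at 610 nm, and fitted to a 4-parameter logistic curve.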
# [4] = tested on: PC-3M-Luc-C6 prostate cells; test: In vitro PC-3M-Luc-C6 prostate cell proliferation assay in lipid reduced medium; assay type: cell-based; details: 96 h, read-out: pIC50 PC-3M-Luc-C6 prostate cell (converted)
# [5] = tested on: A2780 ovarian cells; test: A2780 ovarian cell proliferation assay in lipid reduced medium, with palmitate (MTT); assay type: cell-based; details: Homo sapiens, A2780, 96 h; read-out: pIC50 A2780 Ovarian Cell, With Palmitate (converted)
# Procedure, shortened: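 Seeded cells were switched next day to lipid-reduced serum, exposed to compound and 25 μM palmitate complexed with fatty-acid-free BSA, and incubated 96 h. Proliferation was then determined by MTT absorbance at 544 nm, with a best-fit curve of signal against concentration.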
# [6] = tested on: A2780 ovarian cells; test: A2780 ovarian cell proliferation assay in lipid reduced medium, without palmitate (MTT); assay type: cell-based; details: Homo sapiens, A2780, 96 h; read-out: pIC50 A2780 Ovarian Cell, Without Palmitate (converted)
# Fatty Acid Synthase Keto-reductase Domain (FASN KR), sequence (P49327 whole entry, the tested form may be a part): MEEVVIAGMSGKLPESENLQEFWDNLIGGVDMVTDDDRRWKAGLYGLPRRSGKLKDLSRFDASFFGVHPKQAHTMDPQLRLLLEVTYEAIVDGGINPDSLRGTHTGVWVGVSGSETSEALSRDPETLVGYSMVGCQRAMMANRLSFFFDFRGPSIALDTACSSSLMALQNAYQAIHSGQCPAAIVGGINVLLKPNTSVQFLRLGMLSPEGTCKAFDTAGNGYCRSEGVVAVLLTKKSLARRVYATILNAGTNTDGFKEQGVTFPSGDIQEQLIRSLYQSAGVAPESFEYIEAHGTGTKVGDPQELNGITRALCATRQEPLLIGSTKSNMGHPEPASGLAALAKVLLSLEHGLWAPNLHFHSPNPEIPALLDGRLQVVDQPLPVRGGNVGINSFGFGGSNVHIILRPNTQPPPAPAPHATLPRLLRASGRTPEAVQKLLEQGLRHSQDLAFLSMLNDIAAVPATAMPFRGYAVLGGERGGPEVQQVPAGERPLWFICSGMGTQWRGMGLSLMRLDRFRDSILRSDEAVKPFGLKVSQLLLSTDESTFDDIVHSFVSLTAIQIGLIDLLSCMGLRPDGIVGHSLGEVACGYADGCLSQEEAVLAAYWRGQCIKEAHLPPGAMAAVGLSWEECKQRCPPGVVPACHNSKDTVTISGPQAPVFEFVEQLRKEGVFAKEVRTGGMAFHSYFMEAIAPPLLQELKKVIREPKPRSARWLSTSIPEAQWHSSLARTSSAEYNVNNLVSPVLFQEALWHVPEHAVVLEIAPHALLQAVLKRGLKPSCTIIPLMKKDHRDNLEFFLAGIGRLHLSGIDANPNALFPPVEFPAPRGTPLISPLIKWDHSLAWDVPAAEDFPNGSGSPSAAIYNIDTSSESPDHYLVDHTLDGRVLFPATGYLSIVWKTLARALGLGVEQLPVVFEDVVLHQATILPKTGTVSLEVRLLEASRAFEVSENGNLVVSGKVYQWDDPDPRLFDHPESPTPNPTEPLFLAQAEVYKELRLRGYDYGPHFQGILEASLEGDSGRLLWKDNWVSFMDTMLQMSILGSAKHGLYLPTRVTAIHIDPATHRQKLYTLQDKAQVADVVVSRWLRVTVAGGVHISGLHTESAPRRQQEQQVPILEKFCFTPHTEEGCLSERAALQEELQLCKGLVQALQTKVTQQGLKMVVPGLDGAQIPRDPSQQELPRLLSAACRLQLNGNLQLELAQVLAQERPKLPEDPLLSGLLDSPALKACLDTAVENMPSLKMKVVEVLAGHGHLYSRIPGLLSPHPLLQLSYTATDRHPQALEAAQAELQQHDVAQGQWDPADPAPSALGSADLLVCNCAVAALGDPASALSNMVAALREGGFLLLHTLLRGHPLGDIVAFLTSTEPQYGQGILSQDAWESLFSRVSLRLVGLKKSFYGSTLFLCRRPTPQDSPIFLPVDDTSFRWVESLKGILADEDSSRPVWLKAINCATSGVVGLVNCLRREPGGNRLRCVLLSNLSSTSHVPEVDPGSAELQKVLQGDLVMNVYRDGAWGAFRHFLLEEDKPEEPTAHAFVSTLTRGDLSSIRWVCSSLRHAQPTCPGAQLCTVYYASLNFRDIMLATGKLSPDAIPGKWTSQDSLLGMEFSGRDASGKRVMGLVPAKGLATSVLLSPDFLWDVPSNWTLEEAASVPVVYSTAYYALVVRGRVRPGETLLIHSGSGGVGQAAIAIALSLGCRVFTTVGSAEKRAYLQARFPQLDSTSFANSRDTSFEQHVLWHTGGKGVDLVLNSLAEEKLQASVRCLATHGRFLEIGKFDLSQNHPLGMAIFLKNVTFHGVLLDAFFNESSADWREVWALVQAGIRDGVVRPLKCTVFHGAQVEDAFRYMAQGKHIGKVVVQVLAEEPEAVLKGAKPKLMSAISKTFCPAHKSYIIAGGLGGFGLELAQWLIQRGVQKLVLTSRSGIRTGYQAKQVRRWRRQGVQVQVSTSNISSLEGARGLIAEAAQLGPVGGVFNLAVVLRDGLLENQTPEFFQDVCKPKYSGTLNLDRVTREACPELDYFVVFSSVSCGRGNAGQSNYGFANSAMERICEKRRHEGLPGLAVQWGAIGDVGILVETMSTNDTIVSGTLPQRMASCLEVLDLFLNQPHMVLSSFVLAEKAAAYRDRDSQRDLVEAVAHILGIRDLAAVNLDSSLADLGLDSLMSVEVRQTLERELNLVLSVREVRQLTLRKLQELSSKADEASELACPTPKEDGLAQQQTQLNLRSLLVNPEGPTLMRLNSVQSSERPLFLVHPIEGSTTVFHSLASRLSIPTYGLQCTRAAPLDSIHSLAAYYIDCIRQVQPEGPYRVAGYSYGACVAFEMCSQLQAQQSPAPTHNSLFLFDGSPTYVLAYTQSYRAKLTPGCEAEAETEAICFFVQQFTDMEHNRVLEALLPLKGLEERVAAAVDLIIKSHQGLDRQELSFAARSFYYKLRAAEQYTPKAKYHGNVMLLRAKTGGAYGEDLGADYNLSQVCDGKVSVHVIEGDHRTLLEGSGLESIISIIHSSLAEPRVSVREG
# T1 sequence (P49327 whole entry): as the sequence (P49327 whole entry, the tested form may be a part) above
Compound,IC50 [1] [nM],IC50 [2] [nM],inhibition at 10 µM [3] [%],IC50 [3] [nM],IC50 [4] [nM],IC50 [5] [nM],IC50 [6] [nM]
"Cc1cc(-c2ccc3sc(C)c(C)c3c2)ccc1C1=NC2(CC2)C(=O)N1CC1CN(C(=O)C2CC2)C1 [compound 290, 6-((1-(cyclopropanecarbonyl)azetidin-3-yl)methyl)-5-(4-(2,3-dimethylbenzo[b]thiophen-5-yl)-2-methylphenyl)-4,6-diazaspiro[2.4]hept-4-en-7-one]",~2140,331,110,79.4,~1170,> 10000,~1950
"Cc1cc(-c2ccc3[nH]ccc3c2)ccc1C1=NC2(CC2)C(=O)N1CC1CN(C(=O)C2CC2)C1 [compound 291, 5-(4-(1H-indol-5-yl)-2-methylphenyl)-6-((1-(cyclopropanecarbonyl)azetidin-3-yl)methyl)-4,6-diazaspiro[2.4]hept-4-en-7-one]",295,38,108,27.5,~42.7,> 10000,45.7
"Cc1cc(-c2ccc3c(cnn3C)c2)ccc1C1=NC2(CC2)C(=O)N1CC1CN(C(=O)C2CC2)C1 [compound 292, 6-((1-(cyclopropanecarbonyl)azetidin-3-yl)methyl)-5-(2-methyl-4-(1-methyl-1H-indazol-5-yl)phenyl)-4,6-diazaspiro[2.4]hept-4-en-7-one]",692,245,100,87.1,178,> 10000,126
"Cc1cc(-c2ccc3[nH]ncc3c2)ccc1C1=NC2(CC2)C(=O)N1CC1CN(C(=O)C2CC2)C1 [compound 293, 5-(4-(1H-indazol-5-yl)-2-methylphenyl)-6-((1-(cyclopropanecarbonyl)azetidin-3-yl)methyl)-4,6-diazaspiro[2.4]hept-4-en-7-one]",~513,174,105,38,~141,> 10000,87.1
"Cc1cc2cc(-c3ccc(C4=NC5(CC5)C(=O)N4C[C@@H]4CCN(C(=O)C5CC5)C4)cc3)ccc2s1 [compound 295, (R)-6-((1-(cyclopropanecarbonyl)pyrrolidin-3-yl)methyl)-5-(4-(2-methylbenzo[b]thiophen-5-yl)phenyl)-4,6-diazaspiro[2.4]hept-4-en-7-one]",1290,105,100,53.7,~575,> 10000,631
"O=C(C1CC1)N1CC[C@@H](CN2C(=O)C3(CC3)N=C2c2ccc(-c3ccc4sccc4c3)cc2)C1 [compound 298, (R)-5-(4-(benzo[b]thiophen-5-yl)phenyl)-6-((1-(cyclopropanecarbonyl)pyrrolidin-3-yl)methyl)-4,6-diazaspiro[2.4]hept-4-en-7-one]",617,26.9,100,21.9,66.1,> 10000,58.9
"O=C(C1CC1)N1CC(CN2C(=O)C3(CC3)N=C2c2ccc(-c3ccc4cc[nH]c4c3)cc2)C1 [compound 299, 5-(4-(1H-indol-6-yl)phenyl)-6-((1-(cyclopropanecarbonyl)azetidin-3-yl)methyl)-4,6-diazaspiro[2.4]hept-4-en-7-one]",234,58.9,101,22.9,38.9,> 10000,30.9
"O=C(C1CC1)N1CC(CN2C(=O)C3(CC3)N=C2c2ccc(-c3cccc4[nH]ncc34)cc2)C1 [compound 300, 5-(4-(1H-indazol-4-yl)phenyl)-6-((1-(cyclopropanecarbonyl)azetidin-3-yl)methyl)-4,6-diazaspiro[2.4]hept-4-en-7-one]",1910,126,102,57.5,123,> 10000,74.1
"O=C(C1CC1)N1CC[C@@H](CN2C(=O)C3(CC3)N=C2c2ccc(-c3ccc4cc[nH]c4c3)cc2)C1 [compound 301, (R)-5-(4-(1H-indol-6-yl)phenyl)-6-((1-(cyclopropanecarbonyl)pyrrolidin-3-yl)methyl)-4,6-diazaspiro[2.4]hept-4-en-7-one]",275,27.5,99,20,12,> 10000,14.8
"Cc1cc(-c2ccc3cc[nH]c3c2)ccc1C1=NC2(CC2)C(=O)N1CC1CN(C(=O)C2CC2)C1 [compound 303, 5-(4-(1H-indol-6-yl)-2-methylphenyl)-6-((1-(cyclopropancarbonyl)azetidin-3-yl)methyl)-4,6-diazaspiro[2.4]hept-4-en-7-one]",~912,69.2,102,30.9,39.8,> 6170,28.8
"Cc1cc(-c2cccc3[nH]ncc23)ccc1C1=NC2(CC2)C(=O)N1CC1CN(C(=O)C2CC2)C1 [compound 304, 5-(4-(1H-indazol-4-yl)-2-methylphenyl)-6-((1-(cyclopropanecarbonyl)azetidin-3-yl)methyl)-4,6-diazaspiro[2.4]hept-4-en-7-one]",1260,224,99,97.7,72.4,> 10000,85.1
"Cc1cc(-c2ccc3cc[nH]c3c2)ccc1C1=NC2(CC2)C(=O)N1C[C@@H]1CCN(C(=O)C2CC2)C1 [compound 305, (R)-5-(4-(1H-indol-6-yl)-2-methylphenyl)-6-((1-(cyclopropanecarbonyl)pyrrolidin-3-yl)methyl)-4,6-diazaspiro[2.4]hept-4-en-7-one]",263,30.9,103,25.1,28.8,> 10000,40.7
"Cc1cc(-c2cccc3[nH]ncc23)ccc1C1=NC2(CC2)C(=O)N1C[C@@H]1CCN(C(=O)C2CC2)C1 [compound 306, (R)-5-(4-(1H-indazol-4-yl)-2-methylphenyl)-6-((1-(cyclopropanecarbonyl)pyrrolidin-3-yl)methyl)-4,6-diazaspiro[2.4]hept-4-en-7-one]",513,105,98,50.1,17,> 10000,17.8
"O=C(C1CC1)N1CC[C@@H](CN2C(=O)C3(CC3)N=C2c2ccc(-c3nc4ccccc4o3)cc2)C1 [compound 307, (R)-5-(4-(benzo[d]oxazol-2-yl)phenyl)-6-((1-(cyclopropanecarbonyl)pyrrolidin-3-yl)methyl)-4,6-diazaspiro[2.4]hept-4-en-7-one]",661,145,100,67.6,102,> 10000,91.2
"O=C(C1CC1)N1CC[C@@H](CN2C(=O)C3(CC3)N=C2c2ccc(-c3nc4ccccc4s3)cc2)C1 [compound 308, (R)-5-(4-(benzo[d]thiazol-2-yl)phenyl)-6-((1-(cyclopropanecarbonyl)pyrrolidin-3-yl)methyl)-4,6-diazaspiro[2.4]hept-4-en-7-one]",479,129,102,47.9,100,> 10000,145
"O=C(C1CC1)N1CC[C@@H](CN2C(=O)C3(CC3)N=C2c2ccc(-c3cccc4ncccc34)cc2)C1 [compound 310, (R)-6-((1-(cyclopropanecarbonyl)pyrrolidin-3-yl)methyl)-5-(4-(quinolin-5-yl)phenyl)-4,6-diazaspiro[2.4]hept-4-en-7-one]",813,60.3,102,39.8,~324,> 6170,589
"O=C(C1CC1)N1CC[C@@H](CN2C(=O)C3(CC3)N=C2c2ccc(-c3ccc4cccc(F)c4c3)cc2)C1 [compound 313, (R)-6-((1-(cyclopropanecarbonyl)pyrrolidin-3-yl)methyl)-5-(4-(8-fluoronaphthalen-2-yl)phenyl)-4,6-diazaspiro[2.4]hept-4-en-7-one]",155,52.5,99,38.9,~52.5,8710,53.7
"Cc1cc(-c2ccc(-c3cnn(C)c3)cc2)ccc1C1=NC2(CC2)C(=O)N1C[C@@H]1CCN(C(=O)C2CC2)C1 [compound 316, (R)-6-((1-(cyclopropanecarbonyl)pyrrolidin-3-yl)methyl)-5-(3-methyl-4′-(1-methyl-1H-pyrazol-4-yl)-[1,1′-biphenyl]-4-yl)-4,6-diazaspiro[2.4]hept-4-en-7-one]",102,75.9,108,41.7,19.5,> 10000,~15.8
